Results: patent US10028961B2, “Therapeutically active compounds and their methods of use” (AGIOS PHARMACEUTICALS, INC., priority 2013, dated 2018)

How the values were obtained:
[1] = biological target: IDH1-R132 homodimer enzyme (R132H) (Homo sapiens (Human), UniProt O75874, R132H); experiment: In vitro assay IDH1-R132H homodimer, NADPH depletion assay; format: biochemical
Experimental: (§1) The following describes the experimental procedures that can be used to obtain data on columns 3 and 6 of Table 4.
(§2) A test compound is prepared as 10 mM stock in DMSO and diluted to 50× final concentration in DMSO, for a 50 μl reaction mixture. IDH enzyme activity converting alpha-ketoglutarate to 2-hydroxyglutaric acid is measured using a NADPH depletion assay. In the assay the remaining cofactor is measured at the end of the reaction with the addition of a catalytic excess of diaphorase and resazurin, to generate a fluorescent signal in proportion to the amount of NADPH remaining. […] The reaction is started with the addition of 10 μl of Substrate Mix ([…], 5 mM alpha-ketoglutarate, in Assay Buffer) and the mixture is incubated for 90 minutes at room temperature.

IDH1 R132C = IDH1 R132C (Homo sapiens (Human), UniProt O75874, R132C); experiment: In vitro assay IDH1 R132C homodimer, NADPH depletion assay; format: biochemical
IDH1 R132C, sequence (O75874 whole entry R132C): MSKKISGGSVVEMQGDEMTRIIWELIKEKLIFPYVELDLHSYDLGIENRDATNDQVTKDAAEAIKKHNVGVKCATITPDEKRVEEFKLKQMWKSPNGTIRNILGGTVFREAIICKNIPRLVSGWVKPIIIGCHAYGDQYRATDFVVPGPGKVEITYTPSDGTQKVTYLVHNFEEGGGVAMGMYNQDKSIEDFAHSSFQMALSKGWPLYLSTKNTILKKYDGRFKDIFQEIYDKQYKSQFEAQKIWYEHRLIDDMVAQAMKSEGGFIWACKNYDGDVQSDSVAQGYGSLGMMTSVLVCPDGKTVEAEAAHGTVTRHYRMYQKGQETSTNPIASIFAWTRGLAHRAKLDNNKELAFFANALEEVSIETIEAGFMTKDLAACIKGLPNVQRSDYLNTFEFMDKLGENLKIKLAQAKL
Experimental: as §1, §2
The concentration of NADPH and alpha-ketoglutarate in the Substrate Buffer is 20 μM and 1 mM, respectively.

[2] = biological target: IDH1-R132H homodimer enzyme (Homo sapiens (Human), UniProt O75874, R132H); experiment: In vitro assay IDH1-R132H homodimer, NADPH depletion assay with NADPH/NADP preincubation; format: biochemical; conditions: 5 μM NADPH and 37.5 μM NADP
IDH1-R132H homodimer enzyme, sequence (O75874 whole entry R132H): as the sequence (O75874 whole entry R132C) above, with C132H counted along it
Procedure, shortened: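 Conversion of alpha-ketoglutarate to 2-hydroxyglutarate tracked by NADPH depletion. Reaction started with 5 mM alpha-ketoglutarate plus NADPH substrate mix (50 μl total), 60 min at room temperature. Leftover NADPH quantified via diaphorase/resazurin fluorescence.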

[3] = biological target: IDH1 wt/IDH1 R132C heterodimer (Homo sapiens (Human), UniProt O75874, R132C); experiment: In vitro assay for IDH1m R132C inhibitors, IDH1 wt/IDH1 R132C heterodimer, NADPH depletion (diaphorase/resazurin); format: biochemical; conditions: NADPH/NADP
IDH1 wt/IDH1 R132C heterodimer, sequence (O75874 whole entry R132C): as the sequence (O75874 whole entry R132C) above
IDH1 wt/IDH1 R132C heterodimer, sequence (O75874 whole entry, stated change not applied): as the sequence (O75874 whole entry R132C) above, with C132R counted along it
Experimental: The following describes the experimental procedures that can be used to obtain data on columns 2 and 4 of Table 4 and column 2 of Table 5.
In the primary reaction, the reduction of α-KG acid to 2-HG is accompanied by a concomitant oxidation of NADPH to NADP. The amount of NADPH remaining at the end of the reaction time is measured in a secondary diaphorase/resazurin reaction in which the NADPH is consumed in a 1:1 molar ratio with the conversion of resazurin to the highly fluorescent resorufin.
The mixture of compound, enzyme, and cofactor is pre-incubated at room temperature for 1 hr prior to the addition of alpha-ketoglutarate. To perform the secondary reaction, 10 uL of 1× buffer containing 36 μg/ml diaphorase and […] resazurin is added to the primary reaction and incubated for a further 5 minutes at 25° C. Florescence is read on a Spectramax platereader at Ex 544 Em 590. Compounds or compound dilutions are prepared in 100% DMSO concentration and diluted 1:50 into the final reaction. […] IC50s are determined.
IDH1 or IDH2 wildtype (wt) and mutant heterodimers are expressed and purified by methods known in the art. For example, IDH1wt/R132m heterodimer is expressed and purified as follows. Co-expression of IDH1wt-his and IDH1R132C-flag is carried out in sf9 insect cells. Cells (25 g) are resuspended in 250 ml of 50 mM Tirs, 500 mM NaCl, pH7.4, at 4° C. with stirring. Cells are disrupted with 4 passes through an M-Y110 Micro fluidizer (Microfluidics) set to 500 psi, and then centrifuged at 22,000 rcf for 20 min at 4° C. The supernatant is harvested and loaded at 15 cm/h on a Histrap FF 5*1 ml column (GE) which is equilibrated with 50 mM Tirs, 500 mM NaCl, pH7.4. Host cell contaminants are removed by washing the column with equilibration buffer followed by equilibration buffer containing 20 mM imidazole and 60 mM imidazole to baseline. IDH1wt-his homodimer and IDH1wt-his/IDH1R132C-flag are eluted by equilibration buffer containing 250 mM imidazole. Fractions eluted by 250 mM imidazole are pooled together and loaded at 15 cm/h onto a column pre-packed with 10 ml ANTI-FLAG® M2 Affinity Gel (Sigma), the column is equilibrated with 50 mM Tris, 500 mM NaCl, pH7.4. After washing with equilibration buffer, IDH1wt-his/IDH1R132C-flag heterodimer is eluted by equilibration buffer containing flag peptide (0.2 mg/ml). Aliquots of IDH1wt-his/IDH1R132C-flag are flash frozen in liquid N2 and stored at −80° C. Same conditions are used for the purification of IDH1wt-his/IDH1R132H-flag.

[4] = biological target: IDH1 wt/IDH1 R132H heterodimer (Homo sapiens (Human), UniProt O75874, R132H); experiment: In vitro assay for IDH1m R132H inhibitors, IDH1 wt/IDH1 R132H heterodimer, NADPH depletion (diaphorase/resazurin); format: biochemical; conditions: IDH1 wt/R132H heterodimer, NADPH/NADP, not saturated; read-out: IDH1 wt/R132H NADPH/NADP IC50 not saturated
IDH1 wt/IDH1 R132H heterodimer, sequence (O75874 whole entry R132H): as the sequence (O75874 whole entry R132C) above, with C132H counted along it
IDH1 wt/IDH1 R132H heterodimer, sequence (O75874 whole entry, stated change not applied): as the sequence (O75874 whole entry R132C) above, with C132R counted along it
Procedure, shortened: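 Purified IDH1wt-his/IDH1R132H-flag heterodimer (sf9 co-expression) pre-incubated 1 hr at room temperature with compound and NADPH before α-KG addition. Remaining NADPH read by diaphorase/resazurin conversion to fluorescent resorufin, 5 min at 25° C. Compounds diluted 1:50 from DMSO; IC50 determined.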

[5] = system: U87MG pLVX-IDH2 R140Q-neo cells; experiment: U87MG pLVX-IDH2 R140Q-neo cell based assay, 2-HG by LC-MS; conditions: Homo sapiens, U-87 MG
HT1080 cells = experiment: Cellular assay for IDH1m R132C inhibitors, 2-HG by LC-MS in HT1080 cells; format: cell-based; conditions: Homo sapiens, HT-1080
Procedure, shortened: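 HT1080 cells at 5000 cells/well were treated with compound (0.2% DMSO final). After 48 h, 2-HG in the medium was measured by LC-MS. Viability was read by CellTiter-Glo luminescence at 72 h.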

IDH2 R140Q = IDH2 R140Q (Homo sapiens (Human), UniProt P48735, R140Q); experiment: In vitro assay for IDH2m R140Q inhibitors, cofactor depletion assay; format: biochemical; conditions: IDH2 R140Q enzyme
IDH2 R140Q, sequence (P48735 40-452 R140Q): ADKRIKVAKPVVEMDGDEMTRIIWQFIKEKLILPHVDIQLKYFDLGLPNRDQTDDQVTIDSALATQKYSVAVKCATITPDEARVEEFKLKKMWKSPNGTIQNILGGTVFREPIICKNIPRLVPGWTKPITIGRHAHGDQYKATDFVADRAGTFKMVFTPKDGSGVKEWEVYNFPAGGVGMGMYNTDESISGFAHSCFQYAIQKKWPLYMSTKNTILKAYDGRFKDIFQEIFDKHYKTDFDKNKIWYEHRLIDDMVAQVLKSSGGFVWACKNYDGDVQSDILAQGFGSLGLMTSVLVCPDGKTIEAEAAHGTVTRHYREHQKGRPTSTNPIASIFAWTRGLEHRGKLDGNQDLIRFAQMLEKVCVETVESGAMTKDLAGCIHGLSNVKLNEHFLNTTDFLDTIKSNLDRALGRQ
Procedure, shortened: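 Remaining cofactor measured fluorimetrically: diaphorase/resazurin Stop Mix […], halting the reaction. Before that, mutant enzyme and compound sat 1 h at RT, then substrate mix (4 μM NADPH, 1.6 mM α-KG) was added for 16 h at RT.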

IDH1-R132 homodimer enzyme (R132H), sequence (O75874 whole entry R132H): as the sequence (O75874 whole entry R132C) above, with C132H counted along it

| SMILES | IC50 [1] | IC50 (IDH1 R132C) | IC50 [2] | IC50 [3] | IC50 [4] | further results |
| --- | --- | --- | --- | --- | --- | --- |
| CC(C)Nc1nc(NC(C)C)nc(-c2cccc(C(F)(F)F)n2)n1 [Compound 3] | 100 to 1000 nM | 50 to 100 nM |  |  |  |  |
| C[C@@H](Nc1nc(NCC(N)=O)nc(-c2cccc(C(F)(F)F)n2)n1)C1CC1 [Compound 5] | > 1000 nM |  |  |  |  | IDH1 R132C IC50 (IDH1 R132C): No Fit |
| C[C@@H](Nc1nc(N[C@H](C)C2CC2)nc(-c2ccccc2F)n1)C1CC1 [Compound 6] | > 1000 nM | 100 to 1000 nM |  |  |  |  |
| CC(=O)CNc1nc(N[C@H](C)C2CC2)nc(-c2cccc(C(F)(F)F)n2)n1 [Compound 15] | > 1000 nM | > 1000 nM |  |  |  |  |
| C[C@@H](Nc1nc(N[C@@H]2C[C@H]2c2ccccc2)nc(-c2cccc(C(F)(F)F)n2)n1)C1CC1 [Compound 23] | 50 to 100 nM | 50 to 100 nM |  |  |  |  |
| C[C@@H](Nc1nc(NCc2ccccn2)nc(-c2cccc(C(F)(F)F)n2)n1)C1CC1 [Compound 24, (R)-N^2-(1-cyclopropylethyl)-N^4-(pyridin-2-ylmethyl)-6-(6-(trifluoro-methyl)pyridin-2-yl)-1,3,5-triazine-2,4-diamine] | > 1000 nM | > 1000 nM |  |  |  |  |
| CC(Nc1nc(N[C@H](C)C2CC2)nc(-c2cccc(C(F)(F)F)n2)n1)c1ccccn1 (stereo partly drawn) [Compound 25, N^2-((R)-1-cyclopropylethyl)-N^4-(1-(pyridin-2-yl)ethyl)-6-(6-(trifluoromethyl)pyridin-2-yl)-1,3,5-triazine-2,4-diamine] | > 1000 nM | > 1000 nM |  |  |  |  |
| CC(Nc1nc(N[C@H](C)C2CC2)nc(-c2cccc(C(F)(F)F)n2)n1)c1cccc(C(F)(F)F)c1 (stereo partly shown) [Compound 27] | 50 to 100 nM | 100 to 1000 nM |  |  |  |  |
| C[C@@H](Nc1nc(NC(=O)c2ccccc2)nc(-c2cccc(C(F)(F)F)n2)n1)C1CC1 [Compound 29] | 100 to 1000 nM | > 1000 nM |  |  |  |  |
| COc1ccc(F)c(-c2nc(NC(C)C)nc(NC(C)(C)C#N)n2)c1 [Compound 32] | > 1000 nM | > 1000 nM |  |  |  |  |
| CC(C)Nc1nc(NC(C)(C)C#N)nc(-c2cc(O)ccc2F)n1 [Compound 35] | > 1000 nM | > 1000 nM |  |  |  |  |
| C[C@@H](Nc1nc(NC(C)(C)C#N)nc(-c2cccc(C(F)(F)F)n2)n1)C1CC1 [Compound 37] | 50 to 100 nM | > 1000 nM |  |  |  |  |
| C[C@@H](Nc1nc(NC2CCOC2)nc(-c2cccc(C(F)(F)F)n2)n1)C1CC1 (stereo partly shown) [Compound 38] | 50 to 100 nM | 100 to 1000 nM |  |  |  |  |
| CC(C#N)Nc1nc(N[C@H](C)C2CC2)nc(-c2cccc(C(F)(F)F)n2)n1 (stereo partly shown) [Compound 40] | 50 to 100 nM | 50 to 100 nM |  |  |  |  |
| FC1(F)CCC(Nc2nc(NC3CCC(F)(F)CC3)nc(-c3cccc(C(F)(F)F)n3)n2)CC1 [Compound 41] | 50 to 100 nM | > 1000 nM |  |  |  |  |
| C[C@@H](Nc1nc(N[C@H]2CCCC[C@@H]2O)nc(-c2cccc(C(F)(F)F)n2)n1)C1CC1 [Compound 42] | 50 to 100 nM | 100 to 1000 nM |  |  |  |  |
| N#Cc1ccc2c(c1)CC(Nc1nc(NC3CCC(F)(F)C3)nc(-c3cccc(C(F)(F)F)n3)n1)C2 (stereo not shown) [Compound 242] |  |  | 100 to 1000 nM | 50 to 100 nM | 50 to 100 nM |  |
| Fc1cc(F)cc(Nc2nc(NC3CCC(F)(F)CC3)nc(-c3nc(F)ccc3F)n2)c1 [Compound 260] |  |  |  | 50 to 100 nM | 100 to 1000 nM | IC50 [5]: < 50 nM; IC50 (HT1080 cells): > 1000 nM; IC50 (IDH2 R140Q): < 50 nM |
| FC1(F)CCC(Nc2nc(NC3CCC(F)(F)CC3)nc(-c3ccnc(C(F)(F)F)n3)n2)CC1 [Compound 270] |  |  | > 1000 nM | 100 to 1000 nM | 100 to 1000 nM | IC50 [5]: 100 to 1000 nM; IC50 (IDH2 R140Q): 100 to 1000 nM |
| Fc1ccc(F)c(-c2nc(NC3CCC(F)(F)CC3)nc(NC3CCC(F)(F)CC3)n2)n1 [Compound 276] |  |  | > 1000 nM | 100 to 1000 nM | 100 to 1000 nM |  |
| C[C@@H](Nc1nc(N[C@H](C)C2CC2)nc(-n2cc(I)cn2)n1)C1CC1 [Compound 279] |  |  | > 1000 nM | 100 to 1000 nM | 100 to 1000 nM | IC50 [5]: 100 to 1000 nM; IC50 (IDH2 R140Q): 100 to 1000 nM |
| FC1(F)CCC(Nc2nc(NC3CCC(F)(F)CC3)nc(-c3cccc(OC(F)(F)F)n3)n2)CC1 [Compound 296] |  |  | > 1000 nM | ≥ 1000 nM | 100 to 1000 nM |  |
| FC1(F)CCC(Nc2nc(NC3CCC(F)(F)CC3)nc(-c3c[nH]nc3C(F)(F)F)n2)CC1 [Compound 297] |  |  | > 1000 nM | 100 to 1000 nM | 100 to 1000 nM |  |
| Cc1nc(-c2nc(NC3CC(F)(F)C3)nc(NC3CC(F)(F)C3)n2)co1 [Compound 301] |  |  | > 1000 nM | ≥ 1000 nM | 100 to 1000 nM |  |
| FC1(F)CCC(Nc2nc(NC3CCC(F)(F)CC3)nc(-n3cc(Cl)cn3)n2)CC1 [Compound 302] |  |  | > 1000 nM | 100 to 1000 nM | 100 to 1000 nM | IC50 [5]: 100 to 1000 nM; IC50 (IDH2 R140Q): 100 to 1000 nM |
| Cc1cc(-c2nc(NC3CC(F)(F)C3)nc(NC3CC(F)(F)C3)n2)no1 [Compound 311] |  |  | > 1000 nM | ≥ 1000 nM | > 1000 nM |  |
| COc1ccc(F)c(-c2nc(NC3CCC(F)(F)CC3)nc(NC3CCC(F)(F)CC3)n2)n1 [Compound 321] |  |  | > 1000 nM | ≥ 1000 nM | > 1000 nM |  |
| FC(F)(F)c1cccc(-c2nc(NCC3CC3)cc(NCC3CC3)n2)n1 [Compound 419] | > 1000 nM |  | 100 to 1000 nM |  |  | IC50 [5]: 100 to 1000 nM |
